Data from patent US11261201B2 (priority 2018, dated 2022).
Values after ≈ are worked out from the molar mass of the structure shown. Where a name gives a salt, the structure may show the parent alone. Read-outs that look alike come from different tables or passages of the source.

Assays:
A. baumannii = test: Gram negative MIC protocol (OD600, LB, 24 h); conditions: Acinetobacter baumannii
Experimental: (§1) Overnight bacterial cultures were grown in LB with no added antibiotics at 37° C. with shaking. A 1:1000 dilution of these cultures into LB was exposed to concentration gradients of compounds in 96-well plates (100 μL per well assay volume). Resulting plates were incubated at 37° C. for 24 h without shaking, and OD600 was measured at the end of the incubation. MICs were determined as the lowest concentrations at which OD600 remained at baseline.

E. coli = test: Gram negative MIC protocol (OD600, LB, 24 h); conditions: Escherichia coli
Experimental: as §1

H37RvMA = test: Tuberculosis Alamar Blue/Resazurin assay (MIC); type: cell-based; conditions: Mycobacterium tuberculosis, H37RV, read-out: WT H37Rv MTB Activity
[1] = read-out: MIC A. baumannii LB Media, A. baumannii, LB media, 24 h, OD600
[2] = read-out: MIC E. coli delta-TolC LB Media, E. coli delta-TolC strain, LB media, 24 h, OD600
[3] = read-out: MIC WT E. coli LB Media, wild-type E. coli, LB media, 24 h, OD600
[4] = read-out: MIC E. coli delta-TolC LB Media, E. coli delta-TolC, LB media, OD600
[5] = read-out: MIC WT E. coli LB Media, WT E. coli, LB media, OD600
[6] = read-out: MIC A. baumannii LB Media

Row | SMILES | MIC (A. baumannii; [1]) [µM] | MIC (E. coli; [2]) [µM] | MIC (E. coli; [3]) [µM] | MIC (H37RvMA; WT H37Rv MTB) [µM] | MIC (H37RvMA) [µM] | MIC (E. coli; [4]) [µM] | MIC (E. coli; [5]) [µM] | MIC (A. baumannii; [6]) [µM]
1 | CC(CC1CCCCC1)NCc1ccccc1OCc1ncnn1C (stereo not shown) [B248] | > 150 | 20 (≈ 6.85 µg/mL) | > 150 | > 150 |  |  |  | 
2 | Fc1ccc(C2CC2NCc2ccccc2)cc1F (stereo in doubt) [B211, (1S,2R)-N-benzyl-2-(3,4-difluorophenyl)cyclopropanamine hydrochloride] | 300 | 300 | > 300 |  | > 150 |  |  | 
3 | OC1(CCNCc2ccccc2)CCCCC1 [B187] | > 300 |  |  | > 150 |  | > 300 | > 300 | 
4 | CCCC(CC1CCCCC1)NCc1ccccc1 (stereo not shown) [B165, N-benzyl-1-cyclohexylpentan-2-amine] | > 150 |  |  | > 150 |  | 60 (≈ 15.6 µg/mL) | > 300 | 
5 | CC(CC1CCCCC1)NCc1ccccc1OCCc1ccccc1F (stereo not shown) [B429, 1-cyclohexyl-N-(2-(2-fluorophenethoxy)benzyl)propan-2-amine] | 33 (≈ 12.2 µg/mL) |  |  | 20.2 (≈ 7.46 µg/mL) |  | 2 (≈ 0.739 µg/mL) | 55 (≈ 20.3 µg/mL) | 
6 | COCCOCCOc1ccccc1CNC(C)CC1CCCCC1 (stereo not shown) [B301] | > 150 | 12 (≈ 4.19 µg/mL) | > 150 | > 150 |  |  |  | 
7 | CC(NCc1ccccc1)C(C)C1CCCCC1 (stereo not shown) [B89] | > 150 |  |  | 91 (≈ 22.3 µg/mL) |  | > 150 | 300 (≈ 73.6 µg/mL) | 
8 | COc1cc(CC(C)NCc2ccccc2)ccn1 (stereo not shown) [B85] | > 150 |  |  |  | > 150 | > 150 | > 150 | 
9 | Cc1ccccc1COc1ccccc1CNC(C)CC1CCCCC1 (stereo not shown) [B384] | 55 (≈ 19.3 µg/mL) | 4 (≈ 1.41 µg/mL) | 91 (≈ 32 µg/mL) | 20.2 (≈ 7.1 µg/mL) |  |  |  | 
10 | Cc1ccc(CNC2CCCCC2)cc1 [B137] | > 150 |  |  | > 150 |  | > 150 | > 150 | 
11 | CCCNC(=O)COc1ccccc1CNC(C)CC1CCCCC1 (stereo not shown) [B242] | > 150 | 12 (≈ 4.16 µg/mL) | > 150 | > 150 |  |  |  | 
12 | COc1ccc(CCNCc2ccccc2)c2ccccc12 [B111] | 150 (≈ 43.7 µg/mL) |  |  | 33 (≈ 9.62 µg/mL) |  | 150 (≈ 43.7 µg/mL) | > 150 | 
13 | c1ccc(CNCCC2CCCCN2)cc1 (stereo not shown) [B360] | > 150 | > 150 | > 150 | > 150 |  |  |  | 
14 | CC(CC1CCCCC1)NCc1ccccc1OCC(=O)NC(=O)NC1CCCC1 (stereo not shown) [B317] | 91 (≈ 37.8 µg/mL) | 3 (≈ 1.25 µg/mL) | 91 (≈ 37.8 µg/mL) | 55 (≈ 22.9 µg/mL) |  |  |  | 
15 | OB(O)c1ccccc1CNCCC1CCCCC1 [B340, 2-((2-cyclohexylethylamino)methyl)phenylboronic acid] | > 150 | 55 (≈ 14.4 µg/mL) | > 150 | > 150 |  |  |  | 
16 | COc1ccc(CC(C)NCc2ccccc2)cn1 (stereo not shown) [B68] | > 150 |  |  |  | > 150 | > 150 | > 150 | 
17 | CC(CC1CCCCC1)NCc1ccccc1OCCC(C)(C)O (stereo not shown) [B275] | 91 (≈ 30.3 µg/mL) | 4 (≈ 1.33 µg/mL) | 150 (≈ 50 µg/mL) | > 150 |  |  |  | 
18 | CC(CC1CCCCC1)NCc1ccccc1OCC(=O)N(C)C1CCCCC1 (stereo not shown) [B263] | > 150 | 3 (≈ 1.2 µg/mL) | > 150 | 91 (≈ 36.5 µg/mL) |  |  |  | 
19 | CC(CC1CCCCC1)NCc1ccccc1OCc1cn(C)nn1 (stereo not shown) [B300] | > 150 | 12 (≈ 4.11 µg/mL) | > 150 | > 150 |  |  |  | 
20 | c1ccc(CNCC2CCCCC2)cc1 [B9] | > 150 |  |  | > 150 |  | > 150 | > 150 | 

Row | SMILES | MIC (A. baumannii; [1]) [µM] | MIC (E. coli; [2]) [µM] | MIC (E. coli; [3]) [µM] | MIC (H37RvMA; WT H37Rv MTB) [µM] | MIC (H37RvMA) [µM] | MIC (E. coli; [4]) [µM] | MIC (E. coli; [5]) [µM] | MIC (A. baumannii; [6]) [µM]
21 | CC(CC1CCCCC1)NCc1ccccc1OCC(=O)N(C)Cc1ccco1 (stereo not shown) [B318] | > 150 | 7 (≈ 2.79 µg/mL) | > 150 | 150 (≈ 59.8 µg/mL) |  |  |  | 
22 | c1ccc(CNCCc2ccc3ccccc3c2)cc1 [B133] | > 150 |  |  | 55 (≈ 14.4 µg/mL) |  | > 150 | > 150 | 
23 | c1ccc(CNCCc2ccc3cc[nH]c3c2)cc1 [B114] |  |  |  |  | > 150 | > 150 | > 150 | > 150
24 | CC(CN1Cc2ccccc2CC1=O)C1CCCCC1 (stereo not shown) [B413, 2-(2-cyclohexylpropyl)-1,4-dihydroisoquinolin-3(2H)-one] | > 150 |  |  | 7.4 (≈ 2.01 µg/mL) |  | 55 (≈ 14.9 µg/mL) | > 150 | 
25 | O=C1Cc2ccccc2CN1CCC1CCCCCC1 [B422, 2-(2-cycloheptylethyl)-1,4-dihydroisoquinolin-3(2H)-one] | > 150 |  |  | 2.5 (≈ 0.679 µg/mL) |  | 150 (≈ 40.7 µg/mL) | > 150 | 
26 | CC(NCc1ccccc1)C1CCCCC1 (stereo not shown) [B134] | > 150 |  |  | > 150 |  | > 150 | 120 (≈ 26.1 µg/mL) | 
27 | CC(CC1CCCCC1)NCc1cccc2ccn(CC(=O)O)c12 (stereo not shown) [B436, 2-(7-(((1-cyclohexylpropan-2-yl)amino)methyl)-1H-indol-1-yl)acetic acid hydrochloride] | > 150 |  |  | > 150 |  | 91 | > 150 | 
28 | COC1CCCCC1CCNCc1ccccc1 (stereo not shown) [B190] | > 300 |  |  | > 150 |  | > 300 | > 300 | 
29 | c1ccc2c(c1)CCN(CCC1CCCCC1)C2 [B417, 2-(2-cyclohexylethyl)-1,2,3,4-tetrahydroisoquinoline] |  |  |  |  | > 150 | > 150 | > 150 | > 150
30 | c1ccc(CNCCC2CCCCC2)cc1 [B132] | 150 (≈ 32.6 µg/mL) |  |  | > 150 |  | 85 (≈ 18.5 µg/mL) | 124 (≈ 27 µg/mL) | 
31 | CC1CC1C(C)NCc1ccccc1 (stereo not shown) [B69] | > 150 |  |  | > 150 |  | > 150 | > 150 | 
32 | O=C1Cc2ccccc2CN1CCC1CCCC1 [B427, 2-(2-cyclopentylethyl)-1,4-dihydroisoquinolin-3(2H)-one] | > 150 |  |  | 2.7 (≈ 0.657 µg/mL) |  | > 150 | > 150 | 
33 | COCC(CC1CCCCC1)NCc1ccccc1 (stereo not shown) [B202, N-benzyl-1-cyclohexyl-3-methoxypropan-2-amine hydrochloride] | > 300 | > 300 | > 300 | > 150 |  |  |  | 
34 | CC(CC1CCCCC1)NCc1ccccc1NC(=O)c1ccccc1F (stereo not shown) [B398, N-(2-(((1-cyclohexylpropan-2-yl)amino)methyl)phenyl)-2-fluorobenzamide hydrochloride] | > 150 |  |  | 150 |  | 91 | > 150 | 
35 | c1ccc(CNC2CCc3cccc4cccc2c34)cc1 (stereo not shown) [B195] | > 300 |  |  | > 150 |  | 300 (≈ 82 µg/mL) | > 300 | 
36 | C[C@H](NCc1ccccc1)[C@H](O)c1ccc2c(c1)OCO2 [B53] | > 150 |  |  |  | > 150 | > 150 | > 150 | 
37 | CCc1cnc(COc2ccccc2CNC(C)CC2CCCCC2)o1 (stereo not shown) [B268] | > 150 | 7 (≈ 2.5 µg/mL) | > 150 | 91 (≈ 32.4 µg/mL) |  |  |  | 
38 | CN(C)c1ccccc1CNCCC1CCCCC1 [B237, 2-((2-cyclohexylethylamino)methyl)-N,N-dimethylaniline hydrochloride] | > 300 | 170 | > 300 | > 150 |  |  |  | 
39 | c1ccc(CNCCC2CCCOC2)cc1 (stereo not shown) [B83] | > 150 |  |  | > 150 |  | > 150 | > 150 | 
40 | CC(NCc1ccccc1)C1C(C)(C)C1(C)C (stereo not shown) [B77] | > 150 |  |  | > 150 |  | > 150 | > 150 | 
